{
  "source": "paper PMC7343696",
  "about": "(EJNMMI Research, 2020)",
  "key": {"[1]": {"target": "T1, human SK-N-SH neuroblastoma cells (uptake via NET) (Homo sapiens, UniProt P23975)", "T1 construct": "host or cells: SK-N-SH human neuroblastoma cells", "T1 sequence (P23975 whole entry)": "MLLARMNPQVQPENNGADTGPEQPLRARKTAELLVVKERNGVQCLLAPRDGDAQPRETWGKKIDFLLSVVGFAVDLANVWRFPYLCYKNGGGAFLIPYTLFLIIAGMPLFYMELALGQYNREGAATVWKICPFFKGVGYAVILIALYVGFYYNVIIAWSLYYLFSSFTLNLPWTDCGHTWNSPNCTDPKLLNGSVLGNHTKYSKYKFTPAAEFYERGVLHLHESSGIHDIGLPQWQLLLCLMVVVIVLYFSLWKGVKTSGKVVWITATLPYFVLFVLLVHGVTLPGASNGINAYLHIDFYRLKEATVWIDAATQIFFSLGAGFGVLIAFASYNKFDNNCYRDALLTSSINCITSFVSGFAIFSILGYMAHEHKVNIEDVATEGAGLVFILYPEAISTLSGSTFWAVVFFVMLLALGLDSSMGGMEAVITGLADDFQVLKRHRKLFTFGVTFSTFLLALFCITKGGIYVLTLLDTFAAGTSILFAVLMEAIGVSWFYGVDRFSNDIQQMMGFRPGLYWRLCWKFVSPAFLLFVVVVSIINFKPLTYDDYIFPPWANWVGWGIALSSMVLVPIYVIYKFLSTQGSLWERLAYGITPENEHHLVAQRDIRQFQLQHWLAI", "assay": "[125I]MIBG uptake inhibition in cultured SK-N-SH neuroblastoma cells", "type": "cell-based"}, "[2]": {"target": "T2, human platelets (uptake via SERT) (Homo sapiens, UniProt P31645)", "T2 construct": "endogenous in cells; host or cells: human platelets in platelet-rich plasma from patients with polycythemia vera or secondary polycythemia", "T2 sequence (P31645 whole entry)": "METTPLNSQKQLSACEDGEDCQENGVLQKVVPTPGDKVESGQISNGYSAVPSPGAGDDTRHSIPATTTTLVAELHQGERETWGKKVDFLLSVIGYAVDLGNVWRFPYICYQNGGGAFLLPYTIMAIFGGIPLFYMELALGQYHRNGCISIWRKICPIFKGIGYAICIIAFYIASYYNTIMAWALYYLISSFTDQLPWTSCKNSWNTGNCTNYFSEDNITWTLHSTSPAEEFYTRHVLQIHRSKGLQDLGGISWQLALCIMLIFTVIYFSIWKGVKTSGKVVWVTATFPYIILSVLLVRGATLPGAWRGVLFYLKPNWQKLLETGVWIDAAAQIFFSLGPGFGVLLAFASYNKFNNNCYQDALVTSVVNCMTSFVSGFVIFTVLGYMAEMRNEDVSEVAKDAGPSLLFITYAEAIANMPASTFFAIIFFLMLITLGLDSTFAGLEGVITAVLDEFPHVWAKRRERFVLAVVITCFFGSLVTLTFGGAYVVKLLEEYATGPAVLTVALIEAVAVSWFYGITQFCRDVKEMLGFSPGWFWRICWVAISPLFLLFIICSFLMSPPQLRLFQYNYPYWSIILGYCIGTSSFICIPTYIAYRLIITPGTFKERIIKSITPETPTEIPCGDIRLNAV", "assay": "[3H]serotonin uptake inhibition in isolated human platelets", "type": "cell-based", "settings": "15 min"}, "[3]": {"target": "T2, human platelets (uptake via SERT)", "assay": "[125I]MIBG uptake inhibition in isolated human platelets", "type": "cell-based"}, "[4]": {"parameters": "method as in ref (3) (a number printed in a supplementary file, which may have a reference list of its own: not looked up in the article's list)", "settings": "mice, 24 mg/kg i.v., fifteen min after administration; ref (3); cited from earlier work"}, "[5]": {"tested_on": "tryptophan or 5-hydroxytryptophan induced symptoms", "settings": "mice, assay type I, cited from earlier work"}, "[6]": {"tested_on": "PC12 pheochromocytoma xenografts", "assay": "[125I]MIBG tumor uptake in mice bearing PC12 pheochromocytoma xenografts", "type": "in vivo", "settings": "for Effect on tumor MIBG uptake in PC12 pheochromocytoma xenografts (in words): data not shown", "protocol": "(§1) Female athymic BALB/c nu/nu mice were bred in the animal facility of the Netherlands Cancer Institute. Experiments were performed in accordance with the national regulations for animal experimentations and approved by the local animal welfare committee. Subcutaneous (s.c.) neuroblastoma tumors consisted of either first passages of intrasplenic-induced SK-N-SH xenografts or later passages from s.c. propagation of the xenograft. […] The tumor volume doubling time was on average 5 days. The toxicity of each monoamine transporter inhibitor was assessed in 2 to 5 non-tumor-bearing nude mice by 1 h careful observation following intraperitoneal (IP) injection of the monoamine transporter inhibitor. Applied inhibitor doses were based on earlier studies (summarized in Electronic Supplementary Material: Table I) and varied from 2 to 50 mg/kg. Provided that no toxicity was observed, plasma of these animals was subsequently analyzed in the ex vivo bioassay described below. […]. First, mice were treated IP with either a monoamine transporter inhibitor or sodium chloride (control). Thirty minutes later, they received an injection in the tail vein with 1 μg MIBG spiked with 4.0–8.0 kBq [^125I]MIBG. One hour after administration of the radiopharmaceutical, the animals were bled from the carotid artery under ether anesthesia and dissected. Tumors and tissues of interest were blotted to remove adhering blood, weighted, and gamma counted. The [^125I]MIBG tissue levels were expressed as the percentage of the injected radioactivity dose per gram tissue. Mice bearing PC12 pheochromocytoma xenografts induced by direct s.c. injections of PC12 cells were used in similar uptake and inhibition experiments."}, "[7]": {"settings": "cited from earlier work"}, "platelet function": {"tested_on": "platelet function", "settings": "plasma concentrations that will inhibit SERT; cited from earlier work"}, "[8]": {"tested_on": "SK-N-SH neuroblastoma xenografts", "assay": "[125I]MIBG tumor uptake in mice bearing SK-N-SH neuroblastoma xenografts", "type": "in vivo, BALB/c nu/nu mice", "settings": "for Effect on [125I]MIBG accumulation in neuroblastoma xenografts (in words): inhibitor IP 30 min before [125I]MIBG, tissues 1 h after, doses as in Fig. 6", "protocol": "as §1"}, "[9]": {"tested_on": "amphetamine-stimulated locomotor activity", "parameters": "method as in ref (8) (a number printed in a supplementary file, which may have a reference list of its own: not looked up in the article's list)", "settings": "mice, i.p., assay type IV; ref (8); cited from earlier work"}, "SERT [10]": {"target": "T3, SERT (Homo sapiens, UniProt P31645)", "T3 construct": "host or cells: HEK293 (ATCC CRL-3216), transient transfection", "T3 sequence (P31645 whole entry)": "as above", "type": "cell-based"}, "NET": {"target": "T4, NET (Homo sapiens, UniProt P23975)", "T4 construct": "host or cells: HEK293 (ATCC CRL-3216), transient transfection", "T4 sequence (P23975 whole entry)": "as the sequence (P23975 whole entry) above", "assay": "[125I]MIBG uptake and its inhibition in NET-transfected HEK293 cells (HEK-NET)", "type": "cell-based"}, "SERT [11]": {"tested_on": "SERT", "settings": "cited from earlier work"}, "[12]": {"settings": "[125I]MIBG as substrate, HEK-SERT"}, "[13]": {"settings": "[125I]MIBG as substrate, HEK-NET"}},
  "note": "“Also recorded” adds a separate entry of the source. Structures can show the parent of a compound that is named as a salt. Where two headings read alike, the source gives them in different places. Marks after values point to notes of the source that are not given here.",
  "data": [
    {"smiles": "CC(N)C(=O)OC(C)(C)Cc1ccc(Cl)cc1", "note": "(centres unmarked) [Alaproclate, alaproclate-HCl]", "values": [
      {"measurement": "IC50", "setting": "[1]", "value": 43.4, "unit": "µM"},
      {"measurement": "Selectivity factor, IC50 ratio", "setting": "[1]", "value": 1158},
      {"measurement": "IC50", "setting": "[2]; 10^−8 M substrate, 37 °C", "value": 516, "unit": "nM"},
      {"measurement": "IC50", "setting": "[3]; 10^−8 M substrate, 37 °C, 4 h", "value": 38, "unit": "nM"}
    ]},
    {"smiles": "CN(C)CCCC1(c2ccc(F)cc2)OCc2cc(C#N)ccc21", "note": "(centres unmarked) [Citalopram, citalopram-HBr]", "values": [
      {"measurement": "Plasma level", "setting": "[4]", "value": 6, "unit": "µM"},
      {"measurement": "50 % effective dose", "setting": "[5]; i.p., ref (1)", "value": "0.9^c mg/kg"},
      {"measurement": "50 % effective dose", "setting": "[5]; oral, ref (2)", "value": "1.2^c mg/kg"},
      {"measurement": "Effect on tumor MIBG uptake in PC12 pheochromocytoma xenografts (in words)", "setting": "[6]", "value": "no significant difference"},
      {"measurement": "Plasma half-life", "setting": "[7]; after oral ingestion", "value": "33 to 54", "unit": "h"},
      {"measurement": "Time to maximum plasma drug levels", "setting": "[7]; after oral ingestion", "value": "≤ 4", "unit": "h"},
      {"measurement": "Absorption after oral ingestion (in words)", "setting": "[7]", "value": "completely absorbed"},
      {"measurement": "Effect on platelet function (in words)", "setting": "platelet function", "value": "no effect on platelet function"},
      {"measurement": "Effect on [125I]MIBG accumulation in neuroblastoma xenografts (in words)", "setting": "[8]", "value": "not significantly affected"}
    ]},
    {"smiles": "CNCCCN1c2ccccc2CCc2ccccc21", "note": "[Desipramine, desipramine-HCl]", "values": [
      {"measurement": "50 % effective dose", "setting": "[5]; i.p., ref (1)", "value": ">39^c mg/kg"},
      {"measurement": "50 % effective dose", "setting": "[5]; oral, ref (2, 4, 7)", "value": "20 – 320^c mg/kg"},
      {"measurement": "Effect on tumor MIBG uptake in PC12 pheochromocytoma xenografts (in words)", "setting": "[6]", "value": "same reduction of MIBG uptake as seen in SK-N-SH neuroblastoma xenografts"},
      {"measurement": "Reported effective dose (cell not marked as 50 % effective dose)", "setting": "[9]", "value": "5 to 36", "unit": "mg/kg"},
      {"measurement": "Decrease of [125I]MIBG accumulation in neuroblastoma xenografts", "setting": "[8]; 20 mg/kg IP 30 min before [125I]MIBG", "value": 60, "unit": "%"},
      {"measurement": "Effect on [125I]MIBG accumulation in neuroblastoma xenografts (in words)", "setting": "[8]", "value": "profoundly decreased"}
    ]},
    {"smiles": "CNCCC(Oc1ccc(C(F)(F)F)cc1)c1ccccc1", "note": "(centres unmarked) [Fluoxetine, fluoxetine-HCl]", "values": [
      {"measurement": "Elimination half-life", "setting": "[7]", "value": "1 to 4", "unit": "days"}
    ]},
    {"smiles": "COCCCC/C(=N\\OCCN)c1ccc(C(F)(F)F)cc1", "note": "[Fluvoxamine, fluvoxamine-maleate]", "values": [
      {"measurement": "50 % effective dose", "setting": "[5]; oral, ref (2)", "value": "13^c mg/kg"},
      {"measurement": "Inhibition of [125I]MIBG uptake in HEK-SERT cells (in words)", "setting": "SERT [10]; 1 h, substrate 10^−6 M", "value": "potently inhibited"},
      {"measurement": "Reduction of pheochromocytoma-associated radioactivity", "setting": "[6]; PC12 xenografts, p < 0.002", "value": 64, "unit": "%"},
      {"measurement": "Inhibition of [3H]serotonin uptake in human platelets (in words)", "setting": "[2]; co-incubation", "value": "effective, inhibitor concentration-dependent inhibition"},
      {"measurement": "Inhibition of [125I]MIBG uptake in HEK-NET cells (in words)", "setting": "NET; 1 h, substrate 10^−6 M", "value": "no significant inhibitory effect at low concentrations"},
      {"measurement": "Effect on [125I]MIBG accumulation in neuroblastoma xenografts (in words)", "setting": "[8]", "value": "no effect; also recorded: not significantly affected"},
      {"measurement": "Inhibition of [125I]MIBG uptake in human platelets (in words)", "setting": "[3]; co-incubation, 4 h", "value": "effective, inhibitor concentration-dependent inhibition"}
    ]},
    {"smiles": "CN(C)CCCN1c2ccccc2CCc2ccccc21", "note": "[Imipramine, imipramine-HCl]", "values": [
      {"measurement": "Effect on MIBG uptake in neuroblastoma cells (in words)", "setting": "[1]", "value": "profound inhibitory effect"},
      {"measurement": "Inhibition of [125I]MIBG uptake in human platelets (in words)", "setting": "[3]", "value": "able to inhibit"}
    ]},
    {"smiles": "N=C(N)NCc1cccc(I)c1", "note": "[MIBG, meta-iodobenzylguanidine]", "values": [
      {"measurement": "Km", "setting": "SERT [10]; [125I]MIBG as substrate, HEK-SERT, 1 h incubation", "value": 9.7, "unit": "µM"},
      {"measurement": "Km", "setting": "NET; [125I]MIBG as substrate, HEK-NET, 1 h incubation", "value": 490, "unit": "nM"}
    ]},
    {"smiles": "N=C(N)NCc1cccc([131I])c1", "note": "[MIBG, meta-iodobenzylguanidine]", "values": [
      {"measurement": "Nonspecific uptake, share of total uptake", "setting": "SERT [10]; SERT-transfected cells, substrate concentration 10^−5 M", "value": 22, "unit": "%"},
      {"measurement": "Catalytic efficiency (ratio Vmax/Km)", "setting": "SERT [10]; [12]", "value": 0.0077},
      {"measurement": "Vmax", "setting": "SERT [10]; [12]", "value": 0.074, "unit": "μmol/mg protein/min"},
      {"measurement": "Nonspecific uptake, share of total uptake", "setting": "NET; NET-transfected cells, substrate concentration 10^−5 M", "value": 33, "unit": "%"},
      {"measurement": "Catalytic efficiency (ratio Vmax/Km)", "setting": "NET; [13]", "value": 0.045},
      {"measurement": "Vmax", "setting": "NET; [13]", "value": 0.022, "unit": "μmol/mg protein/min"},
      {"measurement": "Total uptake (percentage of added radioactivity)", "setting": "[3]; control platelet samples without SSRIs, MIBG, n = 17", "value": "23.6 ± 3.6", "unit": "%"},
      {"measurement": "Nonspecific uptake (percentage of controls)", "setting": "[3]; platelets, MIBG", "value": "12.3 ± 2.5", "unit": "%"}
    ]},
    {"smiles": "NCCC(Oc1ccc(C(F)(F)F)cc1)c1ccccc1", "note": "(centres unmarked) [Norfluoxetine, norfluoxetine-HCl]", "values": [
      {"measurement": "IC50", "setting": "[1]; 10^−8 M substrate, 37 °C, 4 h, read-out: IC50 of uptake inhibition, SK-N-SH, [125I]MIBG", "value": 2.76, "unit": "µM"},
      {"measurement": "Elimination half-life", "setting": "[7]", "value": "7 to 15", "unit": "days"}
    ]},
    {"smiles": "Fc1ccc([C@@H]2CCNC[C@H]2COc2ccc3c(c2)OCO3)cc1", "note": "[Paroxetine, paroxetine-HCl]", "values": [
      {"measurement": "50 % effective dose", "setting": "[5]; i.p., ref (1)", "value": "0.2^c mg/kg"},
      {"measurement": "Bioavailability", "setting": "[7]; extensive first-pass metabolism", "value": "approximately 50%"},
      {"measurement": "Effect on [125I]MIBG accumulation in neuroblastoma xenografts (in words)", "setting": "[8]", "value": "no effect; also recorded: not significantly affected"}
    ]},
    {"smiles": "CN[C@H]1CC[C@@H](c2ccc(Cl)c(Cl)c2)c2ccccc21", "note": "[Sertraline, sertraline-HCl]", "values": [
      {"measurement": "50 % effective dose", "setting": "[5]; i.p., ref (1)", "value": "1.5^c mg/kg"},
      {"measurement": "50 % effective dose", "setting": "[5]; oral, ref (2)", "value": "1.0^c mg/kg"},
      {"measurement": "Effect on tumor MIBG uptake in PC12 pheochromocytoma xenografts (in words)", "setting": "[6]", "value": "no significant difference"},
      {"measurement": "Fraction absorbed after oral ingestion", "setting": "[7]", "value": 44, "unit": "%"},
      {"measurement": "Effect on [125I]MIBG accumulation in neuroblastoma xenografts (in words)", "setting": "[8]", "value": "not significantly affected"}
    ]},
    {"smiles": "CNCCCC1(c2ccc(F)cc2)OCc2cc(C#N)ccc21", "note": "(centres unmarked) [desmethylcitalopram]", "values": [
      {"measurement": "Potency and selectivity in inhibiting SERT in vitro compared with citalopram (in words)", "setting": "SERT [11]", "value": "only slightly less potent and selective than citalopram"}
    ]}
  ]
}
